“And” between values parts separate entries of the source, which are not always exact repeats. Identical values can stand only once. Like-named read-outs stand apart in the source and are kept apart here.
Legend:
[1] = test system: RAW 264.7 macrophages; test: Cytotoxicity in macrophages (MTT); type: cell-based; details: 48 h
Description: (§1) The in vitro tests utilized Leishmania amazonensis parasites (IFLA/BR/67/PH8). These leishmania cell lines were obtained from Oswaldo Cruz Foundation (FIOCRUZ)/Brazil. The promastigote forms were cultivated in Schneider’s insect medium at 26 °C in a biological oxygen demand (BOD) incubator. Schneider’s insect medium was supplemented with 20% fetal bovine serum (FBS) and 1% penicillin (100 U/mL) and streptomycin (µg/mL) (complete Schneider). Next, we differentiated them from promastigote forms by changing the conditions to Schneider’s insect medium supplemented with 5% FBS, pH 4.6, and a temperature of 32 °C to obtain axenic amastigote forms of L. amazonensis. Meanwhile, RAW 264.7 macrophages were cultured in […] cell culture flasks using DMEM medium supplemented with 10% FBS, 1% penicillin 100 U/mL, and 100 μg/mL streptomycin (complete DMEM) and incubated at 37 °C and 5% CO2.
First, 100 μL DMEM medium complete with 1 × 10^6 macrophages (RAW 264.7) was added to each well of a 96-well plate. RAW 264.7 macrophages were obtain from ATCC: code TIB-71^TM. The plate was placed in an incubator (37 °C, 5% CO2) (Sanyo, model COM-15A, Sanyo Electric Co., Osaka, Japan) for 4 h to promote cell adhesion. After this period, two washes were conducted with previously heated DMEM medium (37 °C) to remove non-adhered cells. 2-amino-thiophene and 2-amino-selenophene derivatives were added to wells at serial concentrations of 400 to 25 µM and then incubated for 48 h. Next, 10 μL of MTT at a […] of 5 mg/mL were added to each well and incubated for 4 h. The plate was then shaken for 30 min and read at the test and reference wavelengths of 550 and 620 nm, respectively, in a plate reader. DMEM medium supplemented with 0.5% DMSO was used as a negative control and considered as 100% macrophage viability. The selectivity index for each treatment was calculated as the ratio between the concentration of cytotoxicity of RAW 264.7 macrophages (CC50) and the 50% inhibitory concentration (IC50) or effective concentration (EC50), as measured for the different evolutionary forms of L. amazonensis.

[2] = test system: promastigotes of L. amazonensis; test: Growth inhibition of promastigote forms of L. amazonensis (MTT); type: cell-based, Leishmania amazonensis; details: 72 h, 26 °C
Description: as §1
Parasite growth inhibition was evaluated using the methodology described by Rodrigues et al. (2015). Cultures of logarithmically growing promastigote and axenic amastigote forms (1 × 10^6 parasites/mL) were incubated in 96-well plates containing 100 µL of supplemented Schneider’s medium in triplicate. Serial concentrations of 2-amino-thiophene and 2-amino-selenophene derivatives (10.00–0.156 μM) and the reference drugs meglumine antimoniate (500–40,000 μg/mL), amphoterecinB (0.1–2 μM), and pentamidine (3.12–100 µM) were added. BNP was used as a negative control. The cultures were incubated in a biological oxygen demand oven (model Eletrolab EL202, São Paulo, Brazil) at 26 °C for promastigotes and 32 °C for axenic amastigotes for 72 h. Then, 10 μL of MTT (5 mg/mL) was added to each well to colorimetrically evaluate growth inhibition. The plate was subsequently incubated for a further 4 h, followed by adding 50 μL of 10% sodium dodecyl sulfate solution for […] before the optical density of the culture was read on a microplate spectrophotometer reader. The reading was taken at the test and reference wavelengths of 540 and 620 nm using a microplate spectrophotometer. The negative control consisted of 0.2% […] with BNP, considered to be 100% viable.

[3] = test system: promastigotes of L. amazonensis; details: L. amazonensis promastigotes; previously published; read-out: IC50 Promastigotes; cited from earlier work
[4] = test system: axenic amastigotes of L. amazonensis; details: L. amazonensis amastigotes, cited from earlier work
[5] = test system: L. amazonensis; details: Swiss mice, oral, 50 and 200 mg/kg, 7 weeks; versus meglumine antimoniate i.p. 100 mg/kg; cited from earlier work

Row | SMILES | CC50 [1] | CC50 ([1]; listed as Anfotericina B) [nM] | IC50 [2] | IC50 ([2]; listed as Anfotericina B) [nM] | IC50 [3] | IC50 ([4]; previously published, read-out: IC50 Amastigotes) [nM] | EC50 ([4]; read-out: EC50 against amastigotes) [nM] | paw lesion size and parasite load in the reservoirs [5]
1 | C[C@@H]1[C@H](O)[C@@H](C)/C=C/C=C/C=C/C=C/C=C/C=C/C=C/[C@H](O[C@@H]2O[C@H](C)[C@@H](O)[C@H](N)[C@@H]2O)C[C@@H]2O[C@](O)(C[C@@H](O)C[C@@H](O)[C@H](O)CC[C@@H](O)C[C@@H](O)CC(=O)O[C@H]1C)C[C@H](O)[C@H]2C(=O)O [Amphotericin B, reference compound] | 180 nM and 300 nM | 380 | 170 nM and 300 nM | 360 |  |  |  | 
2 | N#Cc1c(/N=C/c2c[nH]c3ccc(Br)cc23)sc2c1CCCC2 [SB-83] |  |  |  |  | 3300 nM and 3370 nM | 18500 | 18500 | more effective than meglumine antimoniate

Reference: article PMC11768359, “2-Aminothiophene Derivatives—New Drug Candidates Against Leishmaniasis: Drug Design, Synthesis, Pharmacomodulation, and Antileishmanial Activity” (Pharmaceuticals, 2025)
